# Legend:
# [1] = tested on: A549.CD19 tumor spheroids; assay: A549.CD19 tumor spheroid model, rescue treatment after chronic stimulation; assay type: cell-based, human
# Experimental: An A549.CD19 tumor spheroid model was further used to elucidate the T cell modulatory activity of the compounds. A549.CD19 tumor spheroid growth is insensitive to monotherapy treatment with the immunomodulatory compounds. […] Averaged measurement of tumor spheroid size at Day 9 following co-culture with CAR-T cells was assessed. […] The log 2 fold change compared to control cells (chronically stimulated cells that had not been concurrently treated with immunomodulatory compound) is shown in FIG. 50B.
# [2] = tested on: anti-CD19 CAR+ T cells; assay: Expansion of anti-CD19 CAR+ T cells following serial restimulation with irradiated K562-CD19 cells; assay type: cell-based, human; settings: 1 μM, 4 rounds of stimulation, 12 days, two donors
# Experimental: The ability of anti-CD19 CAR+ T cells to expand ex vivo following repeated stimulations was assessed using methods substantially as described in Example 2. […] For each donor, cells were harvested every 3-5 days from each experimental condition in the wells and counted, and restimulated with new target cells using the same culture conditions after resetting cell number to initial seeding density for each round. A total of 4 rounds of stimulation during a 12 day culture period were carried out. For each round of stimulation, the total number of cells was determined, and the results were depicted as the fold-change of cell number after stimulation (FIG. 17A) or number of doublings compared to initial number (FIG. 17B).
# [3] = tested on: OPM-2; assay: OPM-2 human multiple myeloma orthotopic mouse model, Study 1; assay type: in vivo
# Experimental: Mice (NOD.Cg-Prkd^scidIL-2rg^tm1Wjl/SzJ mice (NSG; Jackson Labs)) were injected intravenously (i.v.) with 2×10^6 OPM2 (multiple myeloma) cells transfected with firefly luciferase (OPM2-ffluc). Tumor engraftment was allowed to occur for 13 days prior to staging (14 days before CAR-T cell administration) and verified using bioluminescence imaging.
# In groups receiving CAR+ T cells, anti-BCMA CAR (generated by transducing cells derived from samples of human donor subjects essentially as described above) were administered at day 0 (day 14 after tumor cell injection), at a dose of either 5×10^5 (low) or 1×10^6 (high) CAR-expressing T cells. Table E1 summarizes the dosing regimens.
# Tumor burden in animals among the various groups was monitored by bioluminescence imaging up to day 39 post-CAR+ T cell dosing. For bioluminescence imaging, mice received intraperitoneal (i.p.) injections of luciferin substrate (CaliperLife Sciences, Hopkinton, MA) resuspended in PBS (15 μg/g body weight). The total flux (photon/s) was determined at each time point.
# Table E2 lists median survival (ms) (as assessed at day 56 post-CAR+ T cell administration) and number of mice in group surviving until day 56-post-CAR+ T cell administration, for each animal group assessed in this study.
# [4] = tested on: OPM-2; assay: OPM-2 human multiple myeloma orthotopic mouse model, Study 2; assay type: in vivo
# Experimental: In a further study, NOD/Scid/gc^−/− (NSG) mice were injected (i.v.) with OPM-2-luciferase cells as described in Study 1 above and allowed to engraft for 14 days prior to CAR-T (or mock) cell; infusion (i.v.).
# At 14 days after tumor cell injection (day 0), a subtherapeutic dose of CAR+ T cells (1×10^6 CAR-T cells (generated from two different donors)) or mock control cells was injected intravenously. Data are presented as mean±SEM. For in vivo survival, a Gehan-Breslow-Wilcoxon test was used to compare groups.
# FIG. 10E depicts the results of tumor burden assessment through day 60, as analyzed by the bioluminescence […]. […] P values were obtained by likelihood ratio tests comparing the full model with the effect of interest against the model without the effect of interest.
# Blood from the treated mice was collected for CAR-T pharmacokinetic analysis, and cells were stained with antibodies to exclude mouse-specific cells (H2-kd, TER119, and muCD45) and analyzed by flow cytometry. Cells were gated on CD45+CD3+ CAR+ and the cells per microliter of blood was determined. For pharmacokinetic measurements, each time point was analyzed by one-way ANOVA and Tukey post-hoc test. FIGS. 10G and 10H show the flow cytometric analysis of mock control cells and CAR-T cells in the blood of the mice at days 8, 14, 22, and 28 following injection of the CAR-T cells from two donors.
# [5] = tested on: RPMI-8226; assay: Cytokine production of anti-BCMA CAR T cells incubated with RPMI-8226 target cells; assay type: cell-based, human
# Text: Culture of T cells not expressing the anti-BCMA CAR (mock) was used as a control.
# [6] = tested on: RPMI-8226
# Text: T cells were isolated by immunoaffinity-based enrichment from leukapheresis samples from healthy donors. Isolated cells were transduced with a viral vector encoding one of various exemplary anti-BCMA CARs. Each anti-BCMA CAR contained a human anti-BCMA scFv, a spacer region, a CD28 transmembrane domain, a 4-1BB-derived intracellular co-signaling sequence, and a CD3-zeta derived intracellular signaling domain. The viral vector construct further encoded a truncated EGFR (EGFRt), which served as a surrogate marker for CAR expression; the EGFRt-coding region was separated from the CAR sequence by a T2A skip sequence. After transduction, cells were expanded and the resulting compositions were frozen by cryopreservation.
# The target RPMI-8226 cells were labeled with NucLight Red (NLR) to permit their tracking by microscopy. […] Normalized target cell numbers were generated by dividing target cell counts to cell counts at the start of each culture.
# The studies above were extended on anti-BCMA CAR+ T cells generated from cells from two additional healthy donors. […] Cytolytic activity and cytokine production (IFNγ, IL-2 and TNF-α) were assayed substantially as described above. Absolute changes in cytokine levels relative to the vehicle control were calculated. Experiments were performed 2 to 3 times in each donor.
# [7] = tested on: anti-BCMA CAR T cells; assay: Proliferation and expansion of anti-BCMA CAR T cells stimulated with BCMA-conjugated beads; assay type: cell-based, human; settings: 5 μM
# Experimental: To further assess proliferation, the cells containing anti-BCMA CAR-expressing T cells were labeled with the proliferation marker dye CELLTRACE VIOLET (CTV; ThermoFisher Scientific, Waltham MA) in accordance with the manufacturer's protocol prior to incubation with the BCMA-conjugated beads. Proliferation was assessed by dye dilution using flow cytometry on cells that were stimulated with beads from the 50 μg/mL BCMA-conjugated bead composition.
# Four days and seven days after addition of BCMA-conjugated beads, the incubated cells were stained with CD4 or CD8 and with an anti-EGFR antibody to determine the percentage of cells positive for EGFRt as a surrogate for CAR+ T cells.
# [8] = tested on: RPMI-8226; assay: Cytolytic activity against RPMI-8226 after seven days incubation with BCMA-conjugated beads; assay type: cell-based, human
# Experimental: Cytolytic activity of CAR+ T cells after incubation with BCMA-conjugated beads was assessed by incubation with the BCMA-expressing target cell line RPMI-8226, which is a BCMA+multiple myeloma cell line. […] The number of viable cells was normalized to cells at day 0 prior to incubation with the RPMI-8226 target cells.
# [9] = tested on: OPM-2; settings: read-out: sensitivity to lenalidomide; cited from earlier work
# [10] = concurrent lenalidomide (from day −1), vs vehicle with anti-BCMA CAR T alone
smiles,measurement,setting,value
"O=C1CC[C@H](N2Cc3c(OCc4ccc(CN5CCOCC5)cc4)cccc3C2=O)C(=O)N1 [Compound 2, (S)-3-[4-(4-morpholin-4-ylmethyl-benzyloxy)-1-oxo-1,3-dihydro-isoindol-2-yl]-piperidine-2,6-dione]",A549.CD19 spheroid growth,"[1]; 0.001 μM, 0.01 μM, or 0.1 μM rescue, Day 9",improved CAR T cell cytolytic
same,IFNγ in supernatant,"[1]; 5 days co-culture, rescue treatment",statistically significant increase
same,number of CAR T cells in co-cultures with tumor spheroids,[1]; day 5,increased
"Nc1cccc2c1CN(C1CCC(=O)NC1=O)C2=O (stereo not drawn) [lenalidomide, 3-(4-amino-1-oxo-1,3-dihydro-2H-isoindol-2-yl)piperidine-2,6-dione]",cell expansion of anti-CD19 CAR+ T cells,[2],no change or only a minor effect
same,"tumor growth or tumor burden, lenalidomide alone","[3]; 10 mg/kg i.p. daily, no CAR-T cells",not observed to reduce tumor growth or tumor burden
same,# animals surviving day 56 post-CART,"[3]; cell dose 1.00E+06 (hi) or 5.00E+05 (low), lenalidomide 10 mg/kg i.p. daily from day −1 (A) or day 14 (B)",0/8
same,Median Survival (assessed at day 6),"[3]; cell dose 1.00E+06 (hi) or 5.00E+05 (low), lenalidomide 10 mg/kg i.p. daily from day −1 (A) or day 14 (B), listed as lenalidomide (A)",28
same,Median Survival (assessed at day 6),"[3]; cell dose 1.00E+06 (hi) or 5.00E+05 (low), lenalidomide 10 mg/kg i.p. daily from day −1 (A) or day 14 (B), listed as lenalidomide (B)",25
same,survival effects in mice treated with anti-BCMA CAR+ T cells,"[3]; high and low CAR doses, lenalidomide at day −1 (A) or delayed d.14 (B)",improved survival effects
same,day post-CAR-T cell injection from which clear differences were observed,"[3]; higher (1×10^6) dose of CAR+ T cells, lenalidomide B",30 to 40 days
same,tumor growth and tumor burden in mice administered CAR+ T cells,"[3]; lenalidomide 10 mg/kg i.p. daily from day −1 (A), both CAR+ T cell doses",slower tumor growth and reduced tumor burden
same,tumor growth and tumor burden in mice administered CAR-T cells,"[3]; lenalidomide from day 14 post-CAR+ T (B), both doses of CAR-T cells",trend towards slower tumor growth and reduced tumor burden
same,tumor growth and tumor burden in mice administered CAR+ T cells,"[4]; 10 mg/kg i.p. daily, 1×10^6 CAR-T cells, both donors, through day 60",slower tumor growth and reduced tumor burden
same,"survival, donor 1 and donor 2",[4]; [10],increased survival
same,"tumor burden, donor 1",[4]; [10],significant decrease
same,CAR T counts in the peripheral blood after 7 days,"[4]; concurrent lenalidomide dosing regimen, not at later time points",increased
same,"mock CAR T effect on tumor burden, donor 1",[4]; lenalidomide with mock cells,"small, but significant"
same,"IL-2, IFNγ and TNF-α in culture supernatants","[5]; 10 μM, E:T 0.3:1, 48 hours",increase
same,cytokine production in RPMI-8226 co-culture,[5]; all donors and cytokines,significantly increased
same,target cell killing by anti-BCMA CAR+ T cells by day 6,"[6]; 1 μM or 10 μM, E:T 0.3:1, vs absence of lenalidomide",greater degree of target cell killing
same,treatment effect on CAR T cytolytic activity in co-culture with RPMI-8226,[6]; three healthy donors and one IMiD-refractory patient,donor-dependent
same,extent of CAR+ T cell expansion (EGFRt+),[7],did not substantially impact
same,total cell count at day 7,[7]; 50 μg beads,small increase in proliferation
same,RPMI 8226 target cell viability without CAR T cells,[8]; 5 μM,did not directly influence target cell viability
same,cytolytic activity of the CAR+ T cells,[8]; 5 μM preincubation during the seven day bead incubation,increased
same,killing activity,[8]; lenalidomide present during the cell killing assay,did not substantially affect
same,IC50,[9],37.4 µM
